According to patent US12473304B2, “Heterocyclic PAD4 inhibitors” (BRISTOL-MYERS SQUIBB COMPANY, priority 2020, dated 2025):

The compounds below were run against human PAD4 (hPAD4) (Homo sapiens (Human), UniProt Q9UM07) (assay: RFMS Human PAD4 Functional Assay 1). Conditions: RFMS assay 1; 5 nM hPAD4, 250 μM BAEE substrate, 50 μM calcium, 37° C.
Assay type: biochemical
Method: RFMS Human PAD4 Functional Assay 1:
Compounds were solubilized in 100% DMSO to achieve all) mM compound concentration. Compound stock solutions were stored at RT. A series of dilutions were prepared in DMSO and mixed 8 times with 20 μL mixing volume. Final top concentration of compound in the assay is 50 μM. Final assay conditions were as follows: • Reaction volume: 26 μl • Assay buffer: 25 mM hepes, pH 7.5, 5 mM NaCl, 1 mM DTT, 0.2 mg/ml BSA, 0.01% CHAPS, 50 μM Calcium, and 5 μM TPEN • Final concentrations: 5 nM hPAD4 enzyme, 250 μM BASE, and 0.5% DMSO • Total incubation time: 30 mins compound and enzyme preincubation at 37° C., 90 min enzyme/substrate reaction, 30 min reaction with phenyl glyoxal at 37° C. • Stop solution: 40 μl 5% TCA in ACN
0.13 μL of compound solution was added to 13 μL of 10 nM PAD4 in assay buffer. After 30 min 13 μl of 500 μM of BAEE was added in 25 mM hepes, pH 7.5, 5 mM NaCl, 1 mM DTT, 0.2 mg/ml BSA, 0.01% CHAPS, 50 μM Calcium, 5 μM TPEN was added and the reaction incubated for 90 min at 37° C. The enzymatic reaction was quenched by addition of 15 μl of 6.1N TCA, 100% Final Concentration is 20%, 35 μl of 8.5 mM phenyl glyoxal (final concentration 4 mM) is then added and the reaction is incubated for 30 min at 37° C.
After 30 minutes the plates are spun down to remove all precipitate. The enzyme reaction was quenched with an equal volume of methanol containing internal standard (modified citrulline). Samples were loaded onto the Rapid Fire RF300 system (Agilent) wherein they were first sipped for 1000 ms and then directly loaded to a C18 separations cartridge using a mixture of acetonitrile containing 0.01% formic acid for 3000 ms desalting. The flow rate of the mobile phase was 1.5 ml/min. Once the samples were eluted from the cartridge, a mobile phase of acetonitrile containing 0.01% formic acid was used to move the samples into the mass spectrometer for 4000 ms at a flow rate of 1.25 ml/min/Sciex API5500 triple quadrupole mass spectrometer (Applied Biosystems) equipped with ESI was used to analyze the peptidyl citrulline and internal standard ions.
MRM transition of product and internal standard were monitored at m/z 424.5 to 350.4 and m/z 293 to 247 respectively. The dwell time for each transition was set at 200 ms, and the ESI voltage was used at 5500 with a source temperature of 400° C. Extracted ion peaks for each transition were integrated using the Rapid Fire Integrator software. Peak area of analyte was normalized with internal standard.).

Sequence of human PAD4 (hPAD4) (Q9UM07 whole entry): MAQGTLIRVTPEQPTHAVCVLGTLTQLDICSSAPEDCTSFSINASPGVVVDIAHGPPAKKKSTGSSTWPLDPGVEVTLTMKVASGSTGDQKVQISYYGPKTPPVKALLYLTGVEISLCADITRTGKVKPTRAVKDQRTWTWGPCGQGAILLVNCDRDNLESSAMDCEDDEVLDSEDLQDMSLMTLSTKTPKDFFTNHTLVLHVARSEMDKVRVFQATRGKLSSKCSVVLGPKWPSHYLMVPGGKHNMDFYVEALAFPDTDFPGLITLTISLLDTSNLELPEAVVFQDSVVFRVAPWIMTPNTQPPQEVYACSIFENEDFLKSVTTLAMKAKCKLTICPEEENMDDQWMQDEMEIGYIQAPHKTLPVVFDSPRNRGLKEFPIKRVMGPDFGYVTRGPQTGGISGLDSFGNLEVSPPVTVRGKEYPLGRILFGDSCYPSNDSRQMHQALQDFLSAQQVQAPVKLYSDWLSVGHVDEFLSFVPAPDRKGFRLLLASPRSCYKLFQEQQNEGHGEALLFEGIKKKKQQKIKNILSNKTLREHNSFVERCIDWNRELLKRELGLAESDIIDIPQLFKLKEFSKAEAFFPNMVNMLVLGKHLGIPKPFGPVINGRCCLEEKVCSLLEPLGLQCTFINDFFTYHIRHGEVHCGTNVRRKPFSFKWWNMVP

| SMILES | IC50 |
| --- | --- |
| COc1cc(C(=O)N2C[C@H](N)C[C@@H](F)C2)cn2nc(-c3cc4cccc(C5CCN(C(=O)C6CC(O)C6)CC5)c4n3CC3CC3)c(C)c12 (single isomer, unassigned) [Example 393] | 250 nM |
| COc1cc(C(=O)N2C[C@H](N)C[C@@H](F)C2)cn2nc(-c3cc4cccc(C5CCN(C(=O)C6CCCO6)CC5)c4n3CC3CC3)c(C)c12 (single isomer, unassigned) [Example 394] | 10 nM |
| COc1cc(C(=O)N2CCC[C@@H](N)C2)cn2nc(-c3cc4cccc(C5CCN(C(=O)C6CC(O)C6)CC5)c4n3CC3CC3)c(C)c12 (single isomer, unassigned) [Example 396] | 110 nM |
| COc1cc(C(=O)N2C[C@H](N)C[C@@H](F)C2)cn2nc(-c3cc4cccc(C5CCN(C(=O)C6CCCO6)CC5)c4n3CC3CC3)c(C)c12 (single isomer, unassigned) [Example 397] | 40 nM |
| Cc1c(-c2cc3cc(F)cc(C4CCN(C(=O)C5CCCO5)CC4)c3n2CC2CC2)nn2cc(C(=O)N3CCC[C@@H](N)C3)ccc12 (single isomer, unassigned) [Example 488] | 250 nM |
| Cc1c(-c2cc3cc(F)cc(C4CCN(C(=O)C5CCCO5)CC4)c3n2CC2CC2)nn2cc(C(=O)N3CCC[C@@H](N)C3)ccc12 (single isomer, unassigned) [Example 489] | 70 nM |
| Cc1c(-c2cc3cc(F)cc(C4CCN(C(=O)C5CCCO5)CC4)c3n2CC2CC2)nn2cc(C(=O)N3C[C@H](N)C[C@@H](F)C3)ccc12 (single isomer, unassigned) [Example 490] | 150 nM |
| Cc1c(-c2cc3cc(F)cc(C4CCN(C(=O)C5CCCO5)CC4)c3n2CC2CC2)nn2cc(C(=O)N3C[C@H](N)C[C@@H](F)C3)ccc12 (single isomer, unassigned) [Example 491] | 1310 nM |
| COc1cc(C(=O)N2CCC[C@@H](N)C2)cn2nc(-c3cc4cccc(OCC5CC(=O)N(C)C5)c4n3CC3CC3)c(C)c12 (single isomer, unassigned) [Example 551] | 160 nM |
| COc1cc(C(=O)N2CCC[C@@H](N)C2)cn2nc(-c3cc4cccc(OCC5CC(=O)N(C)C5)c4n3CC3CC3)c(C)c12 (single isomer, unassigned) [Example 552] | 100 nM |
| COc1cc(C(=O)N2C[C@H](N)C[C@@H](F)C2)cn2nc(-c3cc4cccc(OCC5CC(=O)N(C)C5)c4n3CC3CC3)c(C)c12 (single isomer, unassigned) [Example 553] | 90 nM |
| COc1cc(C(=O)N2C[C@H](N)C[C@@H](F)C2)cn2nc(-c3cc4cccc(OCC5CC(=O)N(C)C5)c4n3CC3CC3)c(C)c12 (single isomer, unassigned) [Example 554] | 60 nM |
| COc1cc(C(=O)N2CCC[C@@H](N)C2)cn2nc(-c3cc4cccc(OCC5CNC(=O)C5)c4n3CC3CC3)c(C)c12 (single isomer, unassigned) [Example 562] | 140 nM |
| COc1cc(C(=O)N2C[C@H](N)C[C@@H](F)C2)cn2nc(-c3cc4cccc(OCC5CNC(=O)C5)c4n3CC3CC3)c(C)c12 (single isomer, unassigned) [Example 563] | 70 nM |
| COc1cc(C(=O)N2CCC[C@@H](N)C2)cn2nc(-c3cc4cccc(OCC5CNC(=O)C5)c4n3CC3CC3)c(C)c12 (single isomer, unassigned) [Example 564] | 40 nM |
| COc1cc(C(=O)N2C[C@H](N)C[C@@H](F)C2)cn2nc(-c3cc4cccc(OCC5CNC(=O)C5)c4n3CC3CC3)c(C)c12 (single isomer, unassigned) [Example 565] | 20 nM |
| Cc1c(-c2cc3cccc(OCC4CNC(=O)C4)c3n2CC2CC2)nn2cc(C(=O)N3CCC[C@@H](N)C3)cc(F)c12 (single isomer, unassigned) [Example 566] | 10 nM |
| Cc1c(-c2cc3cccc(OCC4CNC(=O)C4)c3n2CC2CC2)nn2cc(C(=O)N3C[C@H](N)C[C@@H](F)C3)cc(F)c12 (single isomer, unassigned) [Example 567] | 20 nM |
| Cc1c(-c2cc3cccc(OCC4CNC(=O)C4)c3n2CC2CC2)nn2cc(C(=O)N3CCC[C@@H](N)C3)cc(F)c12 (single isomer, unassigned) [Example 571] | 30 nM |

| SMILES | IC50 |
| --- | --- |
| Cc1c(-c2cc3cccc(OCC4CNC(=O)C4)c3n2CC2CC2)nn2cc(C(=O)N3C[C@H](N)C[C@@H](F)C3)cc(F)c12 (single isomer, unassigned) [Example 572] | 80 nM |
| Cc1c(-c2cc3cccc(OCC4CNC(=O)C4)c3n2CC2CC2)nn2cc(C(=O)N3C[C@H](N)C[C@@H](F)C3)ccc12 (single isomer, unassigned) [Example 573] | 110 nM |
| Cc1c(-c2cc3cccc(OCC4CC(=O)N(C)C4)c3n2CC2CC2)nn2cc(C(=O)N3CCC[C@@H](N)C3)ccc12 (single isomer, unassigned) [Example 576] | 190 nM |
| Cc1c(-c2cc3cccc(OCC4CC(=O)N(C)C4)c3n2CC2CC2)nn2cc(C(=O)N3C[C@H](N)C[C@@H](F)C3)ccc12 (single isomer, unassigned) [Example 577] | 150 nM |
| Cc1c(-c2cc3cccc(OCC4CC(=O)N(C)C4)c3n2CC2CC2)nn2cc(C(=O)N3CCC[C@@H](N)C3)ccc12 (single isomer, unassigned) [Example 578] | 190 nM |
| Cc1c(-c2cc3cccc(OCC4CC(=O)N(C)C4)c3n2CC2CC2)nn2cc(C(=O)N3C[C@H](N)C[C@@H](F)C3)ccc12 (single isomer, unassigned) [Example 579] | 240 nM |
| Cc1c(-c2cc3cccc(OCC4CNC(=O)C4)c3n2CC2CC2)nn2cc(C(=O)N3CCC[C@@H](N)C3)ccc12 (single isomer, unassigned) [Example 588] | 230 nM |
| Cc1c(-c2cc3cccc(OCC4CNC(=O)C4)c3n2CC2CC2)nn2cc(C(=O)N3CCC[C@@H](N)C3)ccc12 (single isomer, unassigned) [Example 589] | 60 nM |
| Cc1c(-c2cc3cccc(OCC4CNC(=O)C4)c3n2CC2CC2)nn2cc(C(=O)N3C[C@H](N)C[C@@H](F)C3)ccc12 (single isomer, unassigned) [Example 590] | 30 nM |
| COc1cc(C(=O)N2CCC[C@@H](N)C2)cn2nc(-c3cc4ccnc(OCC5CNC(=O)C5)c4n3CC3CC3)c(C)c12 (single isomer, unassigned; isomer 1) [Example 591] | 30 nM |
| COc1cc(C(=O)N2C[C@H](N)C[C@@H](F)C2)cn2nc(-c3cc4ccnc(OCC5CNC(=O)C5)c4n3CC3CC3)c(C)c12 (single isomer, unassigned; isomer 1) [Example 601] | 30 nM |
| COc1cc(C(=O)N2CC3CCC2[C@@H]3N)cn2nc(-c3cc4ccnc(OCC5CNC(=O)C5)c4n3CC3CC3)c(C)c12 (single isomer, unassigned; isomer 1) [Example 605] | 70 nM |
| Cc1c(-c2cc3ccnc(OCC4CNC(=O)C4)c3n2CC2CC2)nn2cc(C(=O)N3C[C@H](N)C[C@@H](F)C3)ccc12 (single isomer, unassigned; isomer 1) [Example 614] | 60 nM |
| Cc1c(-c2cc3ccnc(OCC4CNC(=O)C4)c3n2CC2CC2)nn2cc(C(=O)N3CCC[C@@H](N)C3)ccc12 (single isomer, unassigned; isomer 1) [Example 618] | 50 nM |
| COc1cc(C(=O)N2C[C@H](N)C[C@@H](F)C2)cn2nc(-c3cc4ccnc(OCC5CNC(=O)C5)c4n3CC3CC3)c(C)c12 (single isomer, unassigned; isomer 2) [Example 602] | 30 nM |
| COc1cc(C(=O)N2CCC[C@@H](N)C2)cn2nc(-c3cc4ccnc(OCC5CNC(=O)C5)c4n3CC3CC3)c(C)c12 (single isomer, unassigned; isomer 2) [Example 603] | 100 nM |
| COc1cc(C(=O)N2CC3CCC2[C@@H]3N)cn2nc(-c3cc4ccnc(OCC5CNC(=O)C5)c4n3CC3CC3)c(C)c12 (single isomer, unassigned; isomer 2) [Example 606] | 50 nM |
| Cc1c(-c2cc3ccnc(OCC4CNC(=O)C4)c3n2CC2CC2)nn2cc(C(=O)N3C[C@H](N)C[C@@H](F)C3)ccc12 (single isomer, unassigned; isomer 2) [Example 615] | 70 nM |
| Cc1c(-c2cc3ccnc(OCC4CNC(=O)C4)c3n2CC2CC2)nn2cc(C(=O)N3CCC[C@@H](N)C3)ccc12 (single isomer, unassigned; isomer 2) [Example 619] | 40 nM |
